This assay deals with P388 leukemia ip, CD2F1 mice, survival T/C. The assay can be described thus: NCI In Vivo Anticancer Drug Screen. Data for tumor model P388 Leukemia (intraperitoneal) in CD2F1 (CDF1) mice. To be noted: endpoint: median survival time, higher = longer survival. The procedure, abridged:
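Mice carrying the transplanted tumor received test compound or vehicle. Survival was recorded in each group, and the value is the treated-group measurement divided by that of the vehicle-treated control group.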

[1] abbreviates: dose: 50.0 mg/kg/injection, schedule: Q01DX009 (ip), vehicle: Klucel (hydroxypropylcellulose) (HPC).
[2] abbreviates: dose: 100.0 mg/kg/injection, schedule: Q01DX009 (ip), vehicle: Klucel (hydroxypropylcellulose) (HPC).
[3] abbreviates: dose: 200.0 mg/kg/injection, schedule: Q01DX009 (ip), vehicle: Klucel (hydroxypropylcellulose) (HPC).
Setting [4] is: dose: 50.0 mg/kg/injection, schedule: Q01DX005 (ip), vehicle: saline.
[5] abbreviates: dose: 100.0 mg/kg/injection, schedule: Q01DX005 (ip), vehicle: saline.
[6] abbreviates: dose: 50.0 mg/kg/injection, schedule: Q01DX005 (ip), vehicle: Klucel (hydroxypropylcellulose) (HPC).
The mark [7] stands for this setting: dose: 50.0 mg/kg/injection, schedule: Q01DX009 (ip), vehicle: saline with Tween-80.
[8] abbreviates: dose: 100.0 mg/kg/injection, schedule: Q01DX009 (ip), vehicle: saline with Tween-80.
[9] abbreviates: dose: 200.0 mg/kg/injection, schedule: Q01DX009 (ip), vehicle: saline with Tween-80.

In PubChem BioAssay AID330 (DTP/NCI, 2004) one finds T/C data, which are given here for 20 compounds.

Values joined by “and” are separate entries in the source; they are usually repeats but may differ in a detail not shown here. Equal entries are not always repeated. Toxic doses and inconclusive results are not listed.

As for `COc1cccc2c1C(=O)c1c(O)c3c(c(O)c1C2=O)C[C@@](O)(c1csc(N2CCN(C)CC2)n1)C[C@@H]3OC1CC(N)C(O)C(C)O1` (some centres not stated), the T/C is 113 % of control (dose: 0.39 mg/kg/injection, schedule: Q01DX009 (ip), vehicle: water); 122 % of control (dose: 0.78 mg/kg/injection, schedule: Q01DX009 (ip), vehicle: water); 155 % of control (dose: 1.56 mg/kg/injection, schedule: Q01DX009 (ip), vehicle: water); 158 % of control (dose: 3.13 mg/kg/injection, schedule: Q01DX009 (ip), vehicle: water); 122 % of control (dose: 12.5 mg/kg/injection, schedule: Q01DX009 (ip), vehicle: water).
`Cn1c(N)c(-n2[nH]c(=O)n(-c3ccccc3)c2=O)c(=O)n(C)c1=O`: the T/C by setting is: under setting [1], 106 % of control; under setting [2], 95 % of control; under setting [3], 98 % of control.
As for `ClCC1OCCO1`, the T/C was 116 % of control (dose: 50.0 mg/kg/injection, schedule: Q01DX009 (ip), vehicle: saline) and 116 % of control (dose: 100.0 mg/kg/injection, schedule: Q01DX009 (ip), vehicle: saline).
Regarding `CC(=O)[O][Hg][CH2]C1Cc2ccccc2O1` (configuration not stated), the T/C by setting is: (dose: 2.5 mg/kg/injection, schedule: Q01DX009 (ip), vehicle: saline) 98 % of control; (dose: 5.0 mg/kg/injection, schedule: Q01DX009 (ip), vehicle: saline) 99 % of control; (dose: 10.0 mg/kg/injection, schedule: Q01DX009 (ip), vehicle: saline) 99 % of control; (dose: 20.0 mg/kg/injection, schedule: Q01DX009 (ip), vehicle: saline) 100 % of control.
Turning to `CC(=O)N(CC1CNc2nc(N)[nH]c(=O)c2N1)c1ccc(C(=O)NC(CCC(=O)O)C(=O)O)cc1` (configuration not stated), the T/C is, setting by setting: (dose: 50.0 mg/kg/injection, schedule: Q04DX003 (ip), vehicle: saline) 98 % of control; (dose: 100.0 mg/kg/injection, schedule: Q04DX003 (ip), vehicle: saline) 102 % of control; (dose: 200.0 mg/kg/injection, schedule: Q04DX003 (ip), vehicle: saline) 95 % of control.
Take `CC1(C)CC[C@H](C2=CC(=O)c3c(O)ccc(O)c3C2=O)O1`: the T/C by setting is: (dose: 1.25 mg/kg/injection, schedule: Q01DX009 (ip), vehicle: Klucel (hydroxypropylcellulose) (HPC)) 117 % of control; (dose: 2.5 mg/kg/injection, schedule: Q01DX009 (ip), vehicle: Klucel (hydroxypropylcellulose) (HPC)) 115 % of control; (dose: 5.0 mg/kg/injection, schedule: Q01DX009 (ip), vehicle: Klucel (hydroxypropylcellulose) (HPC)) 119 % of control; (dose: 10.0 mg/kg/injection, schedule: Q01DX009 (ip), vehicle: Klucel (hydroxypropylcellulose) (HPC)) 118 % of control.
For the compound `CC(CCl)N(CCCl)Cc1cccc(Nc2ncnc3nc[nH]c23)c1` (configuration not stated), the T/C runs as follows: (dose: 0.13 mg/kg/injection, schedule: Q01DX009 (ip), vehicle: saline) 118 % of control; (dose: 0.15 mg/kg/injection, schedule: Q04DX003 (ip), vehicle: saline) 104 % of control; (dose: 0.22 mg/kg/injection, schedule: Q04DX003 (ip), vehicle: saline) 109 % of control; (dose: 0.33 mg/kg/injection, schedule: Q04DX003 (ip), vehicle: saline) 118 % of control; (dose: 1.3 mg/kg/injection, schedule: Q01DX009 (ip), vehicle: saline sonified) 154 % of control; (dose: 2.0 mg/kg/injection, schedule: Q01DX009 (ip), vehicle: saline sonified) 181 % of control. For the same compound, the T/C (dose: 3.0 mg/kg/injection, schedule: Q01DX009 (ip), vehicle: saline sonified) was 172 % of control.
As to `CCN(CC)CCCC(C)Nc1nccc2c(Cl)cccc12` (configuration not stated), the T/C is 108 % of control under setting [4] and 109 % of control under setting [5].
In the case of `CC(C)N(C(C)C)P1(=S)N(C(C)(C)C)N=NN1C(C)(C)C`, the T/C by setting is: under setting [6], 91 % of control; (dose: 100.0 mg/kg/injection, schedule: Q01DX005 (ip), vehicle: Klucel (hydroxypropylcellulose) (HPC)) 101 % of control; (dose: 200.0 mg/kg/injection, schedule: Q01DX005 (ip), vehicle: Klucel (hydroxypropylcellulose) (HPC)) 91 % of control.
Take `CCN1CCn2c(c(COC(=O)NC(C)C)c(COC(=O)NC(C)C)c2-c2ccc(Cl)c(Cl)c2)C1`: the T/C runs as follows: (dose: 6.25 mg/kg/injection, schedule: Q01DX009 (ip), vehicle: distilled water + Tween-80) 116 % of control; (dose: 12.5 mg/kg/injection, schedule: Q01DX009 (ip), vehicle: distilled water + Tween-80) 122 % of control; (dose: 18.8 mg/kg/injection, schedule: Q01DX009 (ip), vehicle: distilled water + Tween-80) 97 % of control; (dose: 25.0 mg/kg/injection, schedule: Q01DX009 (ip), vehicle: distilled water + Tween-80) 116 % of control; (dose: 37.5 mg/kg/injection, schedule: Q01DX009 (ip), vehicle: distilled water + Tween-80) 114 % of control.
As for `NNC(=O)CCc1c[nH]c2ccccc12`, the T/C is 100 % of control (dose: 50.0 mg/kg/injection, schedule: Q01DX001 (ip), vehicle: saline with Tween-80); 96 % of control (dose: 100.0 mg/kg/injection, schedule: Q01DX001 (ip), vehicle: saline with Tween-80); 111 % of control (dose: 200.0 mg/kg/injection, schedule: Q01DX001 (ip), vehicle: saline with Tween-80); 111 % of control (dose: 400.0 mg/kg/injection, schedule: Q01DX001 (ip), vehicle: saline with Tween-80).
For `C[N+](C)(Cc1ccccc1)[N-]C(=N)c1ccccc1`, the T/C is, setting by setting: (dose: 12.5 mg/kg/injection, schedule: Q04DX003 (ip), vehicle: Klucel (hydroxypropylcellulose) (HPC)) 105 % of control; (dose: 25.0 mg/kg/injection, schedule: Q04DX003 (ip), vehicle: Klucel (hydroxypropylcellulose) (HPC)) 101 % of control; (dose: 50.0 mg/kg/injection, schedule: Q04DX003 (ip), vehicle: Klucel (hydroxypropylcellulose) (HPC)) 100 % of control; (dose: 100.0 mg/kg/injection, schedule: Q04DX003 (ip), vehicle: Klucel (hydroxypropylcellulose) (HPC)) 103 % of control.
Regarding `O=C1c2ccccc2C(=O)N1c1cccc(CBr)c1`, the T/C (dose: 12.5 mg/kg/injection, schedule: Q01DX005 (ip), vehicle: Klucel (hydroxypropylcellulose) (HPC)) was 102 % of control; the T/C (dose: 25.0 mg/kg/injection, schedule: Q01DX005 (ip), vehicle: Klucel (hydroxypropylcellulose) (HPC)) was 114 % of control; the T/C under setting [6] is 113 % of control.
For `CC(C)C/C=N\N=C(N)N`, the T/C by setting is: under setting [4], 100 % of control; under setting [5], 100 % of control.
`CCN(CC)CCCNC(=O)c1noc2cc([N+](=O)[O-])ccc12`: the T/C (dose: 12.5 mg/kg/injection, schedule: Q01DX005 (ip), vehicle: saline) is 113 % of control; the T/C (dose: 25.0 mg/kg/injection, schedule: Q01DX005 (ip), vehicle: saline) was 105 % of control; the T/C under setting [4] was 99 % of control.
Regarding `CC(=O)CC(=O)CCCC(=O)O`, the T/C reads like this: under setting [7], 96 % of control; under setting [8], 99 % of control; under setting [9], 104 % of control.
On to `CSc1cccc(NC(=O)Nc2c(C)n(C)n(-c3ccccc3)c2=O)c1`, for which the T/C runs as follows: under setting [1], 92 % of control; under setting [2], 96 % of control; under setting [3], 88 % of control.
Turning to `C=CCC(O)(C(F)(F)F)C(F)(F)F`, the T/C is, setting by setting: under setting [7], 105 % of control; under setting [8], 103 % of control; under setting [9], 115 % of control.
In the case of `COc1c(Cl)cc2c(c1OC)N(C)C1N3C(=O)C4(C)SSC3(C(=O)N4C)C(O)C21O` (configuration not stated), the T/C is, setting by setting: (dose: 0.03 mg/kg/injection, schedule: Q01DX009 (ip), vehicle: Klucel (hydroxypropylcellulose) (HPC)) 100 % of control and 118 % of control; (dose: 0.06 mg/kg/injection, schedule: Q01DX009 (ip), vehicle: Klucel (hydroxypropylcellulose) (HPC)) 89 % of control; (dose: 0.13 mg/kg/injection, schedule: Q01DX009 (ip), vehicle: Klucel (hydroxypropylcellulose) (HPC)) 96 % of control; (dose: 0.5 mg/kg/injection, schedule: Q01DX009 (ip), vehicle: Klucel (hydroxypropylcellulose) (HPC)) 94 % of control.
Consider `NC(N)=NOCC[C@@H](N)C(=O)O`, for which the T/C under setting [4] is 100 % of control; the T/C under setting [5] is 99 % of control; the T/C (dose: 200.0 mg/kg/injection, schedule: Q01DX005 (ip), vehicle: saline) was 101 % of control; the T/C (dose: 400.0 mg/kg/injection, schedule: Q01DX005 (ip), vehicle: saline) is 91 % of control; the T/C (dose: 1000.0 mg/kg/injection, schedule: Q01DX001 (ip), vehicle: saline) is 95 % of control.
